Test results: US8530680B2, “System and method for controlling growth of microorganisms with brominated furanones” (Syracuse University, priority 2008, dated 2013)
Entries after “also recorded” stand apart in the source; their conditions may differ.

Columns and labels:
C. albicans = C. albicans viability assay based on colony-forming unit (CFU) counting; type: cell-based, Candida albicans; conditions: 60 μg/mL, 6 hours in 0.85% NaCl buffer
Description: To further examine the effect of brominated furanones on fungal growth and understand whether BFs are fungicidal agents to C. albicans, BF1 was used as the representative compound in a viability assay based on colony-forming unit (“CFU”) counting. An overnight culture of C. albicans was sub-cultured in 100 mL of SD medium to an initial OD600 of 0.005 and was grown for 24 hours. The cells were then harvested by centrifugation at 4,500 rpm for 5 minutes at room temperature and washed twice with 0.85% NaCl buffer. Then the cells were resuspended in 0.85% NaCl buffer and supplemented with 0, or 60 μg/mL BF1, BF8, BF9, BF10, BF11, BF12, or BF14 to an OD600 of 2.0 using 17×100-mm polystyrene test tubes (Fisher Scientific). After incubation at 30° C. for 6 hours with shaking at 200 rpm, the treated cells were spread on Yeast Extract Peptone Dextrose (YPD) plates containing 20 g/L peptone, 10 g/L yeast extract, 20 g/L dextrose and 15 g/L agar. The colony-forming units (CFUs) on the plates were counted after 24 hours of incubation at 30° C. to evaluate the killing of C. albicans by furanones. Duplicate samples for each furanone were tested and five agar plates were counted for each sample.

[1] = system: Trametes versicolor strain TV7B2-59; assay: Fungal growth on MEA plates with furanone; type: cell-based; set-up: key to growth on plate, TV7B2-59: −: No growth was observed; +: normal growth was seen; conditions: for growth on plate, TV7B2-59: 60 μg/mL, 7 days at 30° C.; for growth inhibition test, inhibitory concentration, TV7B2-59: tested at 1, 5, 30, 60 μg/mL, 7 days
Description: (§1) This Example examines the effect of brominated furanones on the growth of fungi associated with damage to building material. Six fungal strains were the subject of these experiments; Gloeophyllum trabeum (strains GT598 and GT599), Chaetomium globosum (wildtype strain and CG572), and Trametes versicolor (strains TV7B2-59 and TV57MAD277). The species were developed on 2% Malt-Extract Agar (MEA) plates and stored inverted at 4° C. The stocks were refreshed by streaking new plates every two months.
(§2) The brominated and non-brominated furanones were added to MAE agar plates at different concentrations. The brominated furanones were dissolved in either ethanol (“EtOH”) or methanol (“MeOH”) as stock solutions, as shown in Table 5. The non-brominated furanones were purchased from Sigma (St. Louis, Mo.). The furanone stocks were stored at 4° C.
(§3) MAE agar plates containing the same amounts of ethanol/methanol were also prepared as negative controls to eliminate any solvent effects. The plates were prepared using either 90 mm or 60 mm petri dishes and were stored inverted at 4° C. until use.
(§4) Different concentrations of furanones were studied to compare their antifungal activities. The plates were inoculated with the six fungal strains using a platinum loop and were incubated upside down at 30° C. for 7 days to monitor the growth. The initial screening was performed using a single 60 μg/mL furanone concentration.

[2] = system: Candida albicans strain SC5341; assay: C. albicans growth curves in SD medium with furanones (96-well plates, OD600); type: cell-based; conditions: tested 2.5, 5, 10, 20 μg/mL
Description: To evaluate the effects of furanones on fungal growth, C. albicans was grown in a synthetic dextrose (“SD”) medium supplemented with 0, 2.5, 5, 10, or 20 μg/mL of one of eight different brominated furanones and […] furanones (BF1, BF8, BF9, BF11, BF12, BF14, NF1, NF2, or NF3).
The Candida albicans strain SC5341 used in this study was provided by Dr. Sean Palecek from the University of Wisconsin-Madison. C. albicans was routinely grown overnight at 30° C. and shaken at 200 rpm in a SD medium containing 0.67% (wt/vol) yeast nitrogen base without amino acids and 2% (wt/vol) dextrose, which was buffered with 0.165 M morpholinepropanesulfonic acid (MOPS, Sigma), and pH-adjusted to 7.0 with solid NaOH. The overnight culture was then sub-cultured in 25 mL of fresh SD medium to an initial optical density at 600 nm (OD600) of 0.005 and grown till the OD600 reached 1.0. The OD600 values were measured using a Spectronic GENESYS 5 UV-Vis spectrophotometer (Thermo Fisher Scientific®, Waltham, Mass.). This culture was used to inoculate sterile 96-well plates (Costar® No. 9017, Corning®, Corning, N.Y.) containing SD medium supplemented with furanones at different concentrations (0, 2.5, 5, 10, 20 μg/mL) to an OD600 of 0.06 in at least duplicates. The BF1, 8, 9, 11, 12, 14 and NF1-3 compounds were dissolved in ethanol at a concentration of 20 mg/mL. The BF10 compound was dissolved in methanol at a concentration of 20 mg/mL. The amounts of methanol and ethanol were adjusted to be the same for each sample to eliminate the effects of solvents. The samples were then incubated at 30° C. with shaking at 200 rpm, and the OD600 in each well was measured at 0, 4, 7, 17, and 42 hours after inoculation, using an ELx808™ Absorbance Microplate Reader (BioTek Instruments® Inc., Winooski, Vt.).

[3] = system: P. aeruginosa strain PAO1 biofilm formation; assay: Microplate-based biofilm assay (crystal violet, OD540) of P. aeruginosa; type: cell-based, Pseudomonas aeruginosa; conditions: 24 hours
Description: A microplate-based biofilm assay was used to further investigate whether furanones inhibit biofilm formation of P. aeruginosa strain PAO1. For this biofilm assay the strain was grown at 30° C. without shaking in M63 minimal medium containing 13.6 g/L KH2PO4, 2 g/L (NH4)2SO4, 0.5 mg/L FeSO4, 0.12 g/L MgSO4, 5 g/L vitamin free casamino acids and 5 g/L glucose (pH 7.0). The synthesis of the brominated furanones, the structures of which are shown in FIGS. 1A and 1B, was according to Example 1.
The overnight culture of P. aeruginosa was used to inoculate fresh M63 medium supplemented with furanones (0, 30 or 60 μg/mL) to an OD600 of 0.05 in 96-well plates. Four replicates were tested for each condition. The plates were incubated at 30° C. without shaking for 24 hours. The biofilm mass was quantified by following the protocol described previously. Briefly, the planktonic cells were carefully removed by pipetting and the plates with biofilms were washed three times with deionized H2O and dried by gently patting on a piece of paper towel. To quantify biofilms, the plates were stained with 0.1% crystal violet and incubated for 20 minutes at room temperature. The plates were then washed three times with deionized H2O to remove extra dyes. An OD540 was measured to quantify the biofilm on the bottom of each well.

[4] = system: Gloeophyllum trabeum strain GT598; assay: Fungal growth on MEA plates with furanone; type: cell-based; set-up: key to growth on plate, GT598: −: No growth was observed; +: normal growth was seen; conditions: for growth on plate, GT598: 60 μg/mL, 7 days at 30° C.; for growth inhibition test, inhibitory concentration, GT598: tested at 1, 5, 30, 60 μg/mL, 7 days
Description: as §1, §2, §3, §4

E. coli = E. coli growth inhibition (results not shown); type: cell-based; conditions: at / up to 60 μg/mL

O=C1OC(=C(Br)Br)C=C1C(Br)Br [BF10, 3-(dibromomethyl)-5-(dibromomethylene)furan-2-one]
reduction of CFU (C. albicans): 100% | growth on plate, TV7B2-59 [1]: − | growth inhibition test, inhibitory concentration, TV7B2-59 [1]: 30 µg/mL | lowest concentration showing growth inhibition [2]: 20 µg/mL | inhibition of biofilm formation ([3]; 30 μg/mL): didn't show apparent inhibition | inhibition of biofilm formation ([3]; 60 μg/mL): significantly inhibited; also recorded: inhibited biofilm formation completely | growth on plate, GT598 [4]: − | growth inhibition test, inhibitory concentration, GT598 [4]: 30 µg/mL

CC1=C(Br)/C(=C/Br)OC1=O [BF8, 4-bromo-5Z-(bromomethylene)-3-methylfuran-2-one]
reduction of CFU (C. albicans): 50% | growth on plate, TV7B2-59 [1]: − | growth inhibition test, inhibitory concentration, TV7B2-59 [1]: 30 µg/mL | lowest concentration showing growth inhibition [2]: 5 µg/mL | growth inhibition of E. coli (E. coli): did not inhibit | inhibition of biofilm formation ([3]; 30 μg/mL): significantly inhibited | inhibition of biofilm formation ([3]; 60 μg/mL): significantly inhibited | inhibition at 30 µg/mL ([3]; Pseudomonas aeruginosa, PAO1, 30 μg/mL, read-out: inhibition of biofilm formation compared to 24-hour biofilm mass of furanone-free control): 86.1 ± 7.6% | inhibition at 60 µg/mL ([3]; Pseudomonas aeruginosa, PAO1, 60 μg/mL, read-out: inhibition of biofilm formation compared to 24-hour biofilm mass of furanone-free control): 93.8 ± 3.7% | growth on plate, GT598 [4]: − | growth inhibition test, inhibitory concentration, GT598 [4]: 5 µg/mL

CC1=CC(=C(Br)Br)OC1=O [BF9, 5-(dibromomethylene)-3-methylfuran-2-one]
growth on plate, TV7B2-59 [1]: − | growth inhibition test, inhibitory concentration, TV7B2-59 [1]: 5 µg/mL | lowest concentration showing growth inhibition [2]: 20 µg/mL | growth inhibition of E. coli (E. coli): does not inhibit | inhibition of biofilm formation ([3]; 30 μg/mL): significantly inhibited | inhibition of biofilm formation ([3]; 60 μg/mL): significantly inhibited | growth on plate, GT598 [4]: − | growth inhibition test, inhibitory concentration, GT598 [4]: 60 µg/mL

CCCCC1=C(Br)/C(=C/Br)OC1=O [BF1, 4-bromo-5Z-(bromomethylene)-3-butylfuran-2-one]
growth on plate, TV7B2-59 [1]: − | growth inhibition test, inhibitory concentration, TV7B2-59 [1]: 5 µg/mL | lowest concentration showing growth inhibition [2]: 20 µg/mL | growth on plate, GT598 [4]: − | growth inhibition test, inhibitory concentration, GT598 [4]: 30 µg/mL
